Experimental findings from US20080311045A1, “Polymersomes for Use in Acoustically Mediated Intracellular Drug Delivery in vivo” (Biovaluation & Analysis, Inc., priority 2007, published 2008) are described below.

Data set [1] in a line: Laser-photobleaching lipid probe diffusivity in membranes. The format is physicochemical.
The nature of data set [2]: Micropipette aspiration of polymersome membranes (elastic moduli, rupture, toughness). The format is physicochemical. To be noted: micropipette aspiration at 23° C. The procedure:
A tool that has been used to measure many of the material properties of bilayer vesicles is, for example, “micropipette aspiration.” In micropipette aspiration, the rheology and material properties of micron-sized objects are measured using glass pipettes. Small, micron diameter pipettes are used to pick up, deform, and manipulate micron-sized objects, such as giant lipid vesicles. The aspiration pressure is controlled by manometers, in which the hydrostatic pressure in a reservoir connected to the micropipette is varied in relation to a fixed reference.
A deformable object is aspirated using a pressure driving force—or suction pressure—ΔP, and the object is drawn within the pipette to a projection length LP. […] The bending modulus is measured by exerting small tensions on the membrane, to smooth out thermally driven surface undulations. […] Procedures for this important technique and its many modification are readily available to those skilled in the art. […]
Analogous to a lipid bilayer, at low but increasing aspiration pressures, the thermally undulating polymersome membrane is progressively smoothed, increasing the projected area logarithmically with tension, τ. From the slope of this increase (i.e., in tension units of mN/m) versus the fractional change, α, in vesicle area, the bending modulus, Kb, is calculated (see, e.g., Evans et al., 1990) with the following equation: […]

Take `CCCCCCCC/C=C\CCCCCCCC(=O)O[C@H](COC(=O)CCCCCCCCCCCCCCCCC)COP(=O)([O-])OCC[N+](C)(C)C` [SOPC, 1-stearoyl-2-oleoyl phosphatidylcholine]: the lipid probe diffusivity entry in data set [1] is recorded as “approximately 3×10^−8 cm^2/s”. Further, the “area expansion modulus, Ka” value in data set [2] is ~180 mN/m.
